Experimental data published in patent US6541483B2, “Acridone-derived compounds useful as antineoplastic and antiretroviral agents” (The United States of America as represented by the …, priority 1996, dated 2003).
Read-outs that look alike come from different tables or passages of the source.

Key:
HIV-1 protease = HIV-1 protease (Human immunodeficiency virus type 1 group M subtype B, UniProt P04585); experiment: protease activity, HPLC-based assay; type: biochemical
[1] = tested on: attachment of HIV-1RF to CEM-SS cells; experiment: attachment of virions to CEM-SS cells (cell-bound p24 ELISA); type: cell-based; conditions: Human immunodeficiency virus 1, CEM-SS
From the text: (§1) Based on the findings thus far our efforts have focused on biological assays of the temacrazine congener.

HIV-1 integrase = HIV-1 integrase (Human immunodeficiency virus type 1 group M subtype B, UniProt P04585); experiment: 3'-processing and strand transfer with recombinant integrase; type: biochemical; design: in vitro assay using purified oligomers and recombinant HIV-1 integrase
From the text: as §1

HIV-1ADA = experiment: anti-HIV-1 activity in monocyte/macrophage cultures; type: cell-based; conditions: Human immunodeficiency virus 1; HIV-1ADA, human monocyte/macrophage cultures; read-out: Mo/Mφ EC50
Description: The antiviral properties of the WMC series of compounds were evaluated. First, all compounds were tested for their ability to inhibit HIV-1 replication in cell culture using the XTT cytoprotection assay. This assay measures the concentration-dependent capacity of compounds to protect CEM-SS cells from the cytopathic effects of HIV-1. […] Thus, temacrazine was the most efficacious compound in the XTT cytoprotection assay. This conclusion was also reached when the compounds were tested for anti-HIV-1 activity against HIV-1ADA in human monocyte/macrophage cultures (Table 1).

U1 cells = experiment: viability of U1 cells; type: cell-based; conditions: 48 h
Description: As a model of the late phase events during the HIV-1 replication cycle, U1 cells were used that are latently infected with two copies of HIV-1 proviral DNA. The high level expression of virus production in these U1 cells can be stimulated by certain factors, such as TNF-α. U1 cells were stimulated with TNF-α for 24 hours, after which were added various concentrations of temacrazine, and the cultures were allowed to incubate for 48 additional hours. At that time, the cells were evaluated for viability and for their content of viral protein synthesis and processing, while the cell-free supernatant was evaluated for viral p24 content and for the infectious titer of released virions. […] Cell viability was diminished above 30 nM with these U1 cells.

HIV-1RF = experiment: nude mouse hollow fiber model of HIV-1 replication; type: in vivo, nude mice
From the text: The novel mechanism of action of temacrazine and its broad range of activity against HIV-1 and its high therapeutic indexes led us to assess its in vivo and anti-viral properties in a nude mouse hollow fiber model of HIV-1 replication. Briefly, CEM-SS cells are infected with HIV-1RF and placed into hollow fibers and implanted intraperitoneal or subcutaneously into nude mice. […] Similarly, mice are being treated by oral and intravenous administration of temacrazine. Peritoneal washes and serum samples were collected and p24 expression determined by antigen capture. Intraperitoneal administration of temacrazine reduced the amount of detectable p24 in peritoneal washes by 5 to 10 fold independently of the dosage schedule. […] Thus, temacrazine reduces HIV-1 replication in vivo.

HIV-1 in U1 cells = experiment: TNF-α stimulated latently infected U1 cells, virus production; type: cell-based
Description: As a model of the late phase events during the HIV-1 replication cycle, U1 cells were used that are latently infected with two copies of HIV-1 proviral DNA. The high level expression of virus production in these U1 cells can be stimulated by certain factors, such as TNF-α. U1 cells were stimulated with TNF-α for 24 hours, after which were added various concentrations of temacrazine, and the cultures were allowed to incubate for 48 additional hours. At that time, the cells were evaluated for viability and for their content of viral protein synthesis and processing, while the cell-free supernatant was evaluated for viral p24 content and for the infectious titer of released virions.
After TNFα induction and temacrazine treatment, cultures were continued for 72 h after which virion-associated p24 and cell viability (XTT dye reduction) were measured.

[2] = 8.5 mg/kg q8h intraperitoneally
[3] = 12.5 mg/kg q12h intraperitoneally
[4] = 25 mg/kg q24h intraperitoneally

In the case of `O=c1c2ccccc2n2nnc3ccc(NCCCN4CCN(CCCNc5ccc6nnn7c8ccccc8c(=O)c5c67)CC4)c1c32` [temacrazine], the “inhibition of HIV protease” value (HIV-1 protease) is reported as “did not inhibit”, the IC50 ([1]; Table 1, read-out: Attachment ID50) is reported as > 100 µM and the IC50 ([1]; Table 1A, read-out: I50 Attachment) is reported as > 100 µM. The IC50 (HIV-1 integrase) was 10 to 100 nM, the EC50 (HIV-1 integrase; read-out: EC50, 3'-processing and strand transfer activity, purified oligomers, recombinant HIV-1 integrase) was 10 to 100 nM and the EC50 (HIV-1ADA) was 10 nM. For the same molecule, the “concentration above which cell viability was diminished” value (U1 cells) was “above 30 nM”, the “Peritoneal Wash p24, mean” value (HIV-1RF; [2]) was 460 pg p24 and the “Serum p24, mean” value (HIV-1RF; [2]) was 1790 pg p24. For the same molecule, the “Peritoneal Wash p24, mean” value (HIV-1RF; [3]) was 190 pg p24, the “Serum p24, mean” value (HIV-1RF; [3]) was 1863 pg p24 and the “Peritoneal Wash p24, mean” value (HIV-1RF; [4]) was 593 pg p24. The “Serum p24, mean” value (HIV-1RF; [4]) was 2030 pg p24, the “p24 in the serum” value (HIV-1RF; intraperitoneal, total 25 mg/kg per day for 6 days) was “reduced the amount of p24 in the serum” and the “reduction of detectable p24 in peritoneal washes” value (HIV-1RF; intraperitoneal, total 25 mg/kg per day for 6 days, any schedule) was 5 to 10 fold. For the same molecule, the “production of infectious virus following stimulation with TNFα” value (HIV-1 in U1 cells; 30 min. pulse of cultures) was “presented subsequent production of infectious virus”, the EC50 (HIV-1 in U1 cells; Human immunodeficiency virus 1, U1 cells, 72 h, read-out: EC50, inhibition of HIV-1 virus replication (virion-associated p24)) was 10 to 100 nM and the “infectivity of released viral particles (IU/ml)” value (HIV-1 in U1 cells; TNF-α 24 h, then drug 48 h) was “non-infectious”. The “concentration at which virus production (p24) was inhibited” value (HIV-1 in U1 cells; TNF-α 24 h, then drug 48 h, cell-free supernatant) was “below 4 nM” and the “processing of Gag precursor polyprotein (Pr55gag) to p24 and p7NC” value (HIV-1 in U1 cells; cells with integrated virus (U1), Western blotting, listed as WMC-70) was “no p24 can be detected”.
